Test results from US7022716B2, “Cyclic amine phenyl beta-3 adrenergic receptor agonists” (Wyeth, priority 2000, dated 2006).
Where a name gives a salt, the structure may show the parent alone.

Tested on: not given
Test: not given
Settings: not given

Compound	melting point
CC(C)[C@H](NC(=O)c1ccc(N2CCC(NC[C@H](O)c3ccc(O)c(NS(C)(=O)=O)c3)CC2)cc1)C(=O)O (as salt: sodium) [Example 203, (2S)-2-(4-{4-[(2R)-2-Hydroxy-2-(4-hydroxy-3-methanesulfonylamino-phenyl)-ethylamino]-piperidin-1-yl}-benzoylamino)-3-methyl-butyric acid]	> 135 °C (dec.)
O=C1NC(=O)C(Cc2ccc(N3CCC(NC[C@H](O)COc4cccc5[nH]c(=O)[nH]c45)CC3)cc2)S1 (stereo partly drawn) [Example 80, 5-(4-{4-[(2S)-2-Hydroxy-3-(2-oxo-2,3-dihydro-1H-benzoimidazol-4-yloxy)-propylamino]-piperidin-1-yl}-benzyl)-thiazolidine-2,4-dione]	173 to 175 °C (dec.)
CS(=O)(=O)Nc1ccc(C(O)CNC2CCN(c3ccc(CC4SC(=O)NC4=O)cc3)CC2)cn1 (centres unmarked) (as salt: salt) [Example 138, N-[5-(2-{1-[4-(2,4-Dioxo-thiazolidin-5-ylmethyl)-phenyl]-piperidin-4-ylamino}-1-hydroxy-ethyl)-pyridin-2-yl]-methanesulfonamide]	57 to 59 °C
CS(=O)(=O)Nc1cc(C(O)CNC2CCN(c3ccc(C=C4NC(=O)NC4=O)cc3)CC2)ccc1O (centres unmarked) [Example 85, N-[5-(2-{1-[4-(2,5-Dioxo-imidazolidin-4-ylidenemethyl)-phenyl]-piperidin-4-ylamino}-1-hydroxy-ethyl)-2-hydroxy-phenyl]-methanesulfonamide]	> 201 °C (dec.)
CC(C)C[C@H](NC(=O)c1ccc(N2CCC(NC[C@H](O)c3ccc(O)c(NS(C)(=O)=O)c3)CC2)cc1)C(=O)O (as salt: sodium) [Example 199, (2S)-2-(4-{4-[(2R)-2-Hydroxy-2-(4-hydroxy-3-methanesulfonylamino-phenyl)-ethylamino]-piperidin-1-yl}-benzoylamino)-4-methyl-pentanoic acid]	> 177 °C (dec.)
CCCC(=O)Nc1ccc(N2CCC(NC[C@H](O)COc3cccc4[nH]c5ccccc5c34)CC2)cc1 [Example 387, N-[4-(4-{[(2S)-3-(9H-Carbazol-4-yloxy)-2-hydroxypropyl]amino}-1-piperidinyl)phenyl]butanamide]	194 to 199 °C
Cc1ccc(OC[C@@H](O)CNC2CCN(c3ccc(CC4SC(=O)NC4=O)cc3)CC2)cn1 (stereo partly drawn) [Example 128, 5-(4-{4-[(2S)-2-Hydroxy-3-(6-methyl-pyridin-3-yloxy)-propylamino]-piperidin-1-yl}-benzyl)-thiazolidine-2,4-dione]	87 °C (dec.)
CS(=O)(=O)Nc1cc([C@@H](O)CNC2CCN(c3ccc(C(=O)NCC(=O)O)cc3)CC2)ccc1O (as salt: sodium) [Example 197, [(4-{4-[((2R)-2-Hydroxy-2-{4-hydroxy-3-[(methylsulfonyl)amino]phenyl}ethyl)amino]-1-piperidinyl}benzoyl)amino]acetic acid]	> 85 °C (dec.)
O=C1NC(=O)C(Cc2ccc(N3CCC(NC[C@H](O)c4csc(C(F)(F)F)n4)CC3)cc2)S1 (stereo partly drawn) [Example 106, 5-{4-[4-({(2S)-2-Hydroxy-2-[2-(trifluoromethyl)-1,3-thiazol-4-yl]ethyl}amino)piperidine-1-yl]benzyl}-1,3-thiazolidine-2,4-dione]	108 to 113 °C
CS(=O)(=O)Nc1cc([C@@H](O)CNC2CCN(c3ccc(C(=O)N[C@@H](Cc4ccccc4)C(=O)O)cc3)CC2)ccc1O (as salt: sodium) [Example 205, (2S)-2-(4-{4-[(2R)-2-Hydroxy-2-(4-hydroxy-3-methanesulfonylamino-phenyl)-ethylamino]-piperidin-1-yl}-benzoylamino)-3-phenyl-propionic acid]	> 160 °C (dec.)
Cl.Nc1ccc([C@H](O)CNC2CCN(c3ccc(CC4SC(=O)NC4=O)cc3)CC2)cn1 (some centres unmarked)	182 °C (dec.)
CS(=O)(=O)Nc1cc([C@@H](O)CNC2CCN(c3ccc(C(=O)N4CCC[C@H]4C(=O)O)cc3)CC2)ccc1O (as salt: sodium) [Example 201, 1-(4-{4-[(2R)-2-Hydroxy-2-(4-hydroxy-3-methanesulfonylamino-phenyl)-ethylamino]-piperidin-1-yl}-benzoyl)-pyrrolidine-(2S)-2-carboxylic acid]	> 220 °C (dec.)
CC(C)S(=O)(=O)Nc1cc([C@@H](O)CNC2CCN(c3ccc(CC4SC(=O)NC4=O)cc3)CC2)ccc1O (stereo partly drawn) [Example 94, (R)-Propane-2-sulfonic acid [5-(2-{1-[4-(2,4-dioxo-thiazolidin-5-ylmethyl)-phenyl]-piperidin-4-ylamino}-1-hydroxy-ethyl)-2-hydroxy-phenyl]-amide]	> 175 °C (dec.)
CS(=O)(=O)Nc1cc(C(O)CNC2CCN(c3ccc(C=C4SC(=O)NC4=O)cc3)CC2)ccc1O (centres unmarked)	> 200 °C (dec.)
CS(=O)(=O)Nc1cc(C(O)CNC2CCN(c3ccc(CC4SC(=O)NC4=O)cc3)CC2)ccc1O (centres unmarked) [Example 78]	> 150 °C (dec.)
O=C1NC(=O)C(Cc2ccc(N3CCC(NC[C@H](O)c4cc(-c5ccc(Cl)c(Cl)c5)no4)CC3)cc2)S1 (stereo partly drawn) [Example 110, 5-{4-[4-({(2S)-2-[3-(3,4-Dichlorophenyl)isoxazol-5-yl]-2-hydroxyethyl}-amino)piperidine-1-yl}benzyl}-1,3-thiazole-2,4-dione]	110 °C

Molecular target: T1, human β3 adrenergic receptor (Homo sapiens, UniProt P13945)
T1 construct: Full length β3 AR clones (402 amino acids) containing the last 6 amino acids of hβ3-AR are prepared; expressed in transfected cells; host or cells: CHO (Chinese hamster ovary) cells
Test: cAMP (SPA) response in CHO cells transfected with human β3 adrenergic receptor
Format: cell-based
Design: key: fraction of maximal isoproterenol (10^-5 M) response
Settings: maximal response relative to maximal response of isoproterenol at 10^-5 M
Outline: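 Reactions were stopped with 0.2N HCl and neutralised, and cAMP was measured by SPA. Activity is expressed as percent of the maximal 10^−5 M isoproterenol response.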

T1 sequence (P13945 whole entry): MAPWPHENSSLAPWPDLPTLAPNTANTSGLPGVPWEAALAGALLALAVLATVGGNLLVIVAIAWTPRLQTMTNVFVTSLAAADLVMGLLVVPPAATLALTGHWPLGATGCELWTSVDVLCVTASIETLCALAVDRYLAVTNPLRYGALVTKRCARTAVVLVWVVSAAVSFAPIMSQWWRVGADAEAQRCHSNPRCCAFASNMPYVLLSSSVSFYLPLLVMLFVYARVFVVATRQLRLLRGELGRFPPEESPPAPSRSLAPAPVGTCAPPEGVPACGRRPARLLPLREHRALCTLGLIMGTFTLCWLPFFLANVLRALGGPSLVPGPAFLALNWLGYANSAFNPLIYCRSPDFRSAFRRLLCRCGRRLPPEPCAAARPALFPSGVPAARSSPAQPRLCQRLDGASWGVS

Compound	IA(β3)
O=C1NC(=O)C(Cc2ccc(N3CCC(NC[C@H](O)COc4cccc5[nH]c(=O)[nH]c45)CC3)cc2)S1 (stereo partly drawn) [Example 80, 5-(4-{4-[(2S)-2-Hydroxy-3-(2-oxo-2,3-dihydro-1H-benzoimidazol-4-yloxy)-propylamino]-piperidin-1-yl}-benzyl)-thiazolidine-2,4-dione]	1.1
CS(=O)(=O)Nc1cc(C(O)CNC2CCN(c3ccc(C=C4NC(=O)NC4=O)cc3)CC2)ccc1O (centres unmarked) [Example 85, N-[5-(2-{1-[4-(2,5-Dioxo-imidazolidin-4-ylidenemethyl)-phenyl]-piperidin-4-ylamino}-1-hydroxy-ethyl)-2-hydroxy-phenyl]-methanesulfonamide]	0.94
CCCC(=O)Nc1ccc(N2CCC(NC[C@H](O)COc3cccc4[nH]c5ccccc5c34)CC2)cc1 [Example 387, N-[4-(4-{[(2S)-3-(9H-Carbazol-4-yloxy)-2-hydroxypropyl]amino}-1-piperidinyl)phenyl]butanamide]	0.56
O=C1NC(=O)C(=Cc2ccc(N3CCC(NC[C@H](O)COc4cccc5[nH]c(=O)[nH]c45)CC3)c(Br)c2)S1 [Example 68, 5-(3-Bromo-4-{4-[(2S)-2-hydroxy-3-(2-oxo-2,3-dihydro-1H-benzoimidazol-4-yloxy)-propylamino]-piperidin-1-yl}-benzylidene)-thiazolidine-2,4-dione]	1
CS(=O)(=O)Nc1cc([C@@H](O)CNC2CCN(c3ccc(C(=O)NCC(=O)O)cc3)CC2)ccc1O [Example 197, [(4-{4-[((2R)-2-Hydroxy-2-{4-hydroxy-3-[(methylsulfonyl)amino]phenyl}ethyl)amino]-1-piperidinyl}benzoyl)amino]acetic acid]	0.94
CCCCCCNC(=O)Nc1ccc(S(=O)(=O)Nc2ccc(N3CCC(NCC(O)c4ccc(C)nc4)CC3)cc2)cc1 (centres unmarked) [Example 271, 4-{[(Hexylamino)carbonyl]amino}-N-[4-(4-{[2-hydroxy-2-(6-methyl-3-pyridinyl)ethyl]amino}-1-piperidinyl)phenyl]benzenesulfonamide]	0.84
N#Cc1ccc(S(=O)(=O)Nc2ccc(N3CCC(NC[C@H](O)COc4cccc5[nH]c(=O)[nH]c45)CC3)cc2)cc1 [Example 284, 4-Cyano-N-{4-[4-({(2S)-2-hydroxy-3-[(2-oxo-2,3-dihydro-1H-benzimidazol-4-yl)oxy]propyl}amino)-1-piperidinyl]phenyl}benzenesulfonamide]	0.87
COc1ccc(Br)cc1S(=O)(=O)N(c1ccc(N2CCC(NC[C@H](O)COc3cccc4[nH]c(=O)[nH]c34)CC2)cc1)S(=O)(=O)c1cc(Br)ccc1OC [Example 337]	0.72
O=c1[nH]c2cccc(OC[C@@H](O)CNC3CCN(c4ccc(NS(=O)(=O)c5ccc(-c6ccccn6)s5)cc4)CC3)c2[nH]1 [Example 278, N-{4-[4-({(2S)-2-Hydroxy-3-[(2-oxo-2,3-dihydro-1H-benzimidazol-4-yl)oxy]propyl}-amino)-1-piperidinyl]phenyl}-5-(2-pyridinyl)-2-thiophenesulfonamide]	1.04
O=c1[nH]c2cccc(OC[C@@H](O)CNC3CCN(c4ccc(NS(=O)(=O)c5cc(Cl)c(Oc6ccc([N+](=O)[O-])cc6Cl)c(Cl)c5)cc4)CC3)c2[nH]1 [Example 352, 3,5-Dichloro-4-(2-chloro-4-nitrophenoxy)-N-{4-[4-({(2S)-2-hydroxy-3-[(2-oxo-2,3-dihydro-1H-benzimidazol-4-yl)oxy]propyl}amino)-1-piperidinyl]phenyl}-benzenesulfonamide]	1.02
CC(=O)Nc1ccc(S(=O)(=O)Nc2ccccc2N2CCC(NC[C@H](O)c3ccc(O)c(O)c3)CC2)cc1 [Example 265, N-(4-{[2-(4-{[(2R)-2-(3,4-Dihydroxyphenyl)-2-hydroxyethyl]amino}-1-piperidinyl)-anilino]sulfonyl}phenyl)acetamide]	0.8
CC(=O)Nc1ccc(S(=O)(=O)Nc2ccc(N3CCC(NC[C@H](O)COc4ccccc4)CC3)cc2)cc1 [Example 272, N-(4-{[4-(4-{[(2S)-2-Hydroxy-3-phenoxypropyl]amino}-1-piperidinyl)anilino]-sulfonyl}phenyl)acetamide]	0.57
COc1ccc(S(=O)(=O)Nc2ccc(N3CCC(NC[C@H](O)COc4ccc(O)cc4)CC3)cc2)cc1OC [Example 279, N-[4-(4-{[(2S)-2-Hydroxy-3-(4-hydroxyphenoxy)propyl]amino}-1-piperidinyl)phenyl]-3,4-dimethoxybenzenesulfonamide]	0.74
CCCCOc1ccc(S(=O)(=O)Nc2ccc(N3CCC(NC[C@H](O)COc4cccc5[nH]c(=O)[nH]c45)CC3)cc2)cc1 [Example 358, 4-Butoxy-N-{4-[4-({(2S)-2-hydroxy-3-[(2-oxo-2,3-dihydro-1H-benzimidazol-4-yl)oxy]propyl}amino)-1-piperidinyl]phenyl}benzenesulfonamide]	1.1
CC(=O)Nc1ccc(S(=O)(=O)Nc2ccc(N3CCC(NCC(O)c4ccc(O)cc4)CC3)cc2)cc1 (centres unmarked) [Example 259, N-(4-{[4-(4-{[2-Hydroxy-2-(4-hydroxyphenyl)ethyl]amino}-1-piperidinyl)-anilino]sulfonyl}phenyl)acetamide]	0.97
COc1ccc(S(=O)(=O)Nc2ccc(N3CCC(NC[C@H](O)COc4ccc(O)c5c4CCC(=O)N5)CC3)cc2)cc1OC [Example 303, N-{4-[4-({(2S)-2-Hydroxy-3-[(8-hydroxy-2-oxo-1,2,3,4-tetrahydro-5-quinolinyl)oxy]-propyl}amino)-1-piperidinyl]phenyl}-3,4-dimethoxybenzenesulfonamide]	0.96
